Experimental data taken from patent publication EP4635945A1, “CRYSTAL FORM OF PROXIMOD, PREPARATION METHOD THEREFOR, AND USE THEREOF” (Jiankuan (Suzhou) Biotechnology Co., Ltd, priority 2022, dated 2024).

How the values were obtained:
Format in all cases: physicochemical
[1] = Equilibrium solubility in organic solvents at room temperature (HPLC, XRPD of solids); conditions: 24 hours of equilibrium, hydrochloride
Procedure: (§1) After 24 hours of equilibrium, the saturated solutions were obtained by filtration. The contents of the samples in the saturated solutions were determined by high-performance liquid chromatography (HPLC) (the filtered solutions were diluted as needed), and the crystal forms of the solids before and after the experiment were characterized by XRPD to check whether phase changes occurred.

[2] = Fluidity: angle of repose, bulk and tap density, Hausner ratio; conditions: hydrochloride
Procedure: This experiment was performed by using a tap density tester according to the fixed-volume method. The specific operations are as follows: The weighed powder, with a volume of 50 mL, was loaded into a graduated cylinder, and the graduated cylinder was secured onto a support. The graduated cylinder was set to be vibrated at 55 ± 5 vibrations per minute for 6-8 minutes. The volume change of the powder was measured in a measuring cup. The ratio of the weight of the powder to the volume (50 mL) before tapping is the bulk density of the powder, and the ratio of the weight of the powder to the volume after tapping is the tapped density of the powder.
The Hausner ratio and the compression degree were converted in the following methods. Hausner ratio = tap density/bulk density [formula] Compression degree = (tapdensity−bulkdensity)/tap density [formula]
This experiment was performed by a pouring method, and the angles of repose of the drug substances of the two crystal forms were measured in combination with a residual cone method to analyze their fluidities. The specific operations are as follows: The powder was poured onto the center of a disk with a specific diameter, and when the material on the slope of the powder pile began to flow freely out along the periphery of the disk, the pouring of the powder was stopped. The height (h) of the cone was measured, and the angle of repose was calculated in combination with the diameter (2r) of the disk, that is, tanQ = h/r.

[3] = Microscopic morphology and particle size; conditions: microscopy
Text: (§2) In the examples of the present application, the instrument used for the X-ray powder diffraction test is the D2 Phaser produced by Bruker. The instrument used for the differential scanning calorimetry test is the differential scanning calorimeter DSC 250 produced by TA Instruments. The instrument used for the thermogravimetric analysis is the thermogravimetric analyzer TGA 55 produced by TA Instruments. The instrument used for the FT-IR test is the Fourier infrared spectrometer ID1-summit produced by Thermo. The instrument used for the dynamic vapor sorption test is the DVS Intrinsic produced by Surface Measurement Systems (SMS). The instrument used for the microscopy is the microscope NJF-120A produced by Suzhou Nanguang Electronic Technology Co., Ltd.

[4] = Mechanical stability: grinding in agate mortar, XRPD; conditions: 50 mg ground with an agate mortar for 5 minutes; hydrochloride
Text: The samples before and after ground were detected by XRPD.

[5] = Hygroscopicity by dynamic vapor sorption (DVS)
Text: as §2

[6] = Dynamic solubility in biorelevant media and buffers at 37 °C (HPLC, XRPD of solids)
Procedure: as §1, with “1 hour/2 hours/4 hours/24 hours,” for “24 hours of equilibrium,”, “actual concentrations” for “contents”

[7] = Compressibility: tableting, hardness and tensile strength; conditions: die with a diameter of 6 mm
Procedure: In this experiment, a die with a diameter of 6 mm was used. The drug substance and the drug substance + excipient were tableted under the same pressure, respectively. After the elasticity of the prepared tablets was restored, the radial crushing force F, diameter D, and thickness L of the tablets were measured. The tensile strength of the tablets was calculated according to the following formula: Ts = 2F/IIDL.

[8] = Solid-state stability of crystal forms on storage (XRPD, purity); conditions: for Maximum single impurity after storage / Crystal form after storage / Main purity after storage: 30 days, exposed
Procedure: The crystal forms of the samples before and after storage were tested by XRPD.

[9] = FaSSIF (pH of 8.0), 1 hour, hydrochloride
[10] = FaSSIF (pH of 8.0), 2 hours, hydrochloride
[11] = pH = 4.0 acetic acid-sodium acetate buffer, 1 hour, hydrochloride
[12] = pH = 4.0 acetic acid-sodium acetate buffer, 2 hours, hydrochloride
[13] = pH = 4.0 acetic acid-sodium acetate buffer, 4 hours, hydrochloride
[14] = pH = 4.0 acetic acid-sodium acetate buffer, 24 hours, hydrochloride
[15] = pH = 6.8 phosphate buffer, 4 hours
[16] = pH = 6.8 phosphate buffer, 24 hours

- Solubility ([1]; Acetone): 32 µg/mL
- Solubility ([1]; Ethanol): 7610 µg/mL
- Solubility ([1]; Ethyl acetate): Not detected
- Compression degree ([2]; (tap density − bulk density)/tap density): 58.0%
- Bulk density ([2]; fixed-volume method, 50 mL): 0.14 g/mL
- Tap density ([2]; fixed-volume method, after tapping): 0.33 g/mL
- Angle of repose ([2]; pouring method with residual cone method): 64.95 °
- Hausner ratio ([2]; tap density/bulk density): 2.4
- Maximum particle size [3]: less than 100 µm
- Length/short diameter ratio ([3]; hydrochloride): 1-6
- Microscopic morphology ([3]; hydrochloride): rod-shaped
- Weight gain by water absorption (DVS) ([5]; 25.6 °C/90% RH): 0.30%
- Hygroscopicity description ([5]; DVS, 90% RH, hydrochloride): slightly hygroscopic
- Weight gain by water absorption (DVS) ([5]; vapor sorption at 25 °C/90% RH): 0.26%
- Crystal form of the solid [6, 9]: Free alkali
- Solubility [6, 9]: 70 µg/mL
- Crystal form of the solid [6, 10]: Free alkali
- Solubility [6, 10]: 200 µg/mL
- Crystal form of the solid ([6]; FaSSIF (pH of 8.0), 4 hours): Free alkali
- Solubility ([6]; FaSSIF (pH of 8.0), 4 hours, hydrochloride): 410 µg/mL
- Crystal form of the solid ([6]; FaSSIF (pH of 8.0), 24 hours): Free alkali
- Solubility ([6]; FaSSIF (pH of 8.0), 24 hours, hydrochloride): 100 µg/mL
- Solubility ([6]; FeSSIF (pH of 5.0), 1 hour, hydrochloride): 2580 µg/mL
- Solubility ([6]; FeSSIF (pH of 5.0), 2 hours, hydrochloride): 2300 µg/mL
- Solubility ([6]; FeSSIF (pH of 5.0), 4 hours, hydrochloride): 2560 µg/mL
- Crystal form of the solid ([6]; FeSSIF (pH of 5.0), 24 hours): no crystal form change
- Solubility ([6]; FeSSIF (pH of 5.0), 24 hours, hydrochloride): 3460 µg/mL
- Solubility ([6]; SGF (pH of 1.0), 1 hour, hydrochloride): 310 µg/mL
- Solubility ([6]; SGF (pH of 1.0), 2 hours, hydrochloride): 270 µg/mL
- Solubility ([6]; SGF (pH of 1.0), 4 hours, hydrochloride): 290 µg/mL
- Solubility ([6]; SGF (pH of 1.0), 24 hours, hydrochloride): 310 µg/mL
- Crystal form of the solid ([6]; Water, 1 hour, hydrochloride): B + F
- Solubility ([6]; Water, 1 hour, hydrochloride): 1910 µg/mL
- Crystal form of the solid ([6]; Water, 2 hours, hydrochloride): B + F
- Solubility ([6]; Water, 2 hours, hydrochloride): 2430 µg/mL
- Crystal form of the solid ([6]; Water, 4 hours, hydrochloride): B + F
- Solubility ([6]; Water, 4 hours, hydrochloride): 2240 µg/mL
- Crystal form of the solid ([6]; Water, 24 hours, hydrochloride): B + F
- Solubility ([6]; Water, 24 hours, hydrochloride): 2610 µg/mL
- Solubility ([6]; pH = 1.0 hydrochloric acid aqueous solution, 1 hour, hydrochloride): 270 µg/mL
- Solubility ([6]; pH = 1.0 hydrochloric acid aqueous solution, 2 hours): 280 µg/mL
- Solubility ([6]; pH = 1.0 hydrochloric acid aqueous solution, 4 hours, hydrochloride): 280 µg/mL
- Solubility ([6]; pH = 1.0 hydrochloric acid aqueous solution, 24 hours, hydrochloride): 300 µg/mL
- Crystal form of the solid [6, 11]: B + F
- Solubility [6, 11]: 1910 µg/mL
- Crystal form of the solid [6, 12]: B + F
- Solubility [6, 12]: 2350 µg/mL
- Crystal form of the solid [6, 13]: B + F
- Solubility [6, 13]: 1990 µg/mL
- Crystal form of the solid [6, 14]: B + F
- Solubility [6, 14]: 2310 µg/mL
- Crystal form of the solid ([6]; pH = 6.8 phosphate buffer, 1 hour): Free alkali
- Solubility ([6]; pH = 6.8 phosphate buffer, 1 hour, hydrochloride): Not detected
- Crystal form of the solid ([6]; pH = 6.8 phosphate buffer, 2 hours): Free alkali
- Crystal form of the solid [6, 15]: Free alkali
- Solubility [6, 15]: Not detected
- Crystal form of the solid [6, 16]: Free alkali
- Solubility [6, 16]: Not detected
- solubility at 2 h ([6]; phosphate buffer, pH 6.8, aqueous buffer, thermodynamic from solid, pH = 6.8 phosphate buffer, 2 hours): 0.28 µg/mL
- Tensile strength Ts ([7]; Ts = 2F/IIDL, hydrochloride): 0.10
- Hardness ([7]; same pressure, hydrochloride): 3 N
- Experimental phenomena ([7]; tableting): Severe punch sticking
- Maximum single impurity after storage ([8]; At 40 °C/75% RH): Maximum single impurity: 0.04 A%
- Crystal form after storage ([8]; At 40 °C/75% RH, hydrochloride): Crystal form B
- Main purity after storage ([8]; At 40 °C/75% RH, hydrochloride): Main purity: 99.80 A%
- Maximum single impurity after storage ([8]; At 60 °C): Maximum single impurity: 0.04 A%
- Crystal form after storage ([8]; At 60 °C, hydrochloride): Crystal form B
- Main purity after storage ([8]; At 60 °C, hydrochloride): Main purity: 99.79 A%
- Maximum single impurity after storage ([8]; At 92.5%RH): Maximum single impurity: 0.04 A%
- Crystal form after storage ([8]; At 92.5%RH, hydrochloride): Crystal form B
- Main purity after storage ([8]; At 92.5%RH, hydrochloride): Main purity: 99.83 A%
- Maximum single impurity before storage ([8]; Before storage): Maximum single impurity: 0.04 A%
- Main purity before storage ([8]; Before storage, hydrochloride): Main purity: 99.78 A%
- Crystal form after storage ([8]; In light, hydrochloride): Crystal form B
- Main purity after storage ([8]; In light, hydrochloride): Main purity: 99.19 A%
- Maximum single impurity after storage ([8]; In light, hydrochloride): Maximum single impurity: 0.21 A%
- Time the crystal form remains stable ([8]; at 60 °C, 92.5% RH, and 45 °C/75% RH): at least 30 days
Structure (SMILES): CCCc1nc(-c2ccc(-c3ccc(CCC(N)(CO)CO)cc3)cc2)co1.Cl [Crystal form B, 2-amino-2-{2-(4'-(2-propyloxazol-4-yl)-[1,1'-biphenyl]-4-yl)ethyl}-1,3-propanediol hydrochloride]
- Crystal form after ground (XRPD) [4]: partially crystal transformed into the crystal form A
